Read-outs that look alike come from different tables or passages of the source.
Molecular target: T1, PPARγ (Homo sapiens, UniProt P37231)
T1 construct: expressed in transfected cells
T1 sequence (P37231 238-503 limits assumed): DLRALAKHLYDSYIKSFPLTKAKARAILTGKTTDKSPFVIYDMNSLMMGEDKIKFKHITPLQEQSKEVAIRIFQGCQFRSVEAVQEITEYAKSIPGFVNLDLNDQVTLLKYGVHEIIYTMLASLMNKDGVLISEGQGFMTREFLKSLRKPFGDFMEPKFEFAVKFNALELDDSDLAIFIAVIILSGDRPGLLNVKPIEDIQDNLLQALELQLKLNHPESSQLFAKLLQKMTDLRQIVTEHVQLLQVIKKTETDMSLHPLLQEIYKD
Assay: cell-based chimeric receptor transcription assay (PPAR ligand binding domain fused to GAL4 DNA binding domain, GAL4-regulated luciferase reporter)
Details: for RE: RE Conc. 16 μM
Experimental: To determine if these compounds can activate PPARγ or the members of the PPAR family of nuclear receptors (PPARα and PPARδ), the ability of these compounds to activate PPAR receptors in a cell-based chimeric receptor transcription assay were tested. This is a standard nuclear receptor ligand activity assay that utilizes the ligand binding domain of the PPAR receptor fused to a heterologous GAL4 DNA binding domain. The transcriptional read-out is from a GAL4-regulated luciferase reporter. In this assay, compounds that activate the receptor cause an increase in luciferase activity measured in a luminometer. The data are shown in Table 1 below (average luciferase values from transcription assay).

[1] = 1.02 μM conc., * above background
[2] = 2.6 μM conc., * above background
[3] = 6.4 μM conc., * above background
[4] = 16 μM conc., * above background
[5] = 40 μM conc., * above background
[6] = calculated EC50, PPARγ agonist assay, Table 2, read-out: EC50
[7] = read-out: activation of PPARγ, potency (EC50)

| Structure (SMILES) | average luciferase values from transcription assay (0.16 μM conc.) | average luciferase values from transcription assay (0.41 μM conc.) | average luciferase values from transcription assay [1] | average luciferase values from transcription assay [2] | average luciferase values from transcription assay [3] | average luciferase values from transcription assay [4] | average luciferase values from transcription assay [5] | RE | EC50 [6] | EC50 [7] |
| --- | --- | --- | --- | --- | --- | --- | --- | --- | --- | --- |
| CC/C=C\C/C=C\C/C=C\C/C=C\C/C=C\C/C=C\CCCC1SC(=O)NC1=O (centres unmarked) [DHA-TZ, 5-((4Z,7Z,10Z,13Z,16Z,19Z)-docosa-4,7,10,13,16,19-hexaenyl)thiazolidine-2,4-dione] | 106 | 145 | 167* | 207* | 623* | 1454* | 1868* | 1354 | 9.7 µM | 10 µM |
| CC/C=C\C/C=C\C/C=C\C/C=C\C/C=C\CCCC(=O)OCC [EPA Et Ester, eicosapentaenoic acid ethyl ester, reference compound] |  |  |  |  |  |  |  |  | > 100 µM |  |
| CC/C=C\C/C=C\C/C=C\C/C=C\C/C=C\CCCCC1SC(=O)NC1=O (centres unmarked) [EPA-TZ, 5-((5Z,8Z,11Z,14Z,17Z)-eicosa-5,8,11,14,17-pentaenyl)thiazolidine-2,4-dione] | 128 | 123 | 164* | 297* | 705* | 1416* | 48^ | 1316 |  | 12 µM |

Reference: patent US9364465B2, “Thiazolidinediones of omega-3 polyunsaturated acids as new insulin sensitizers for treating type2 diabetes” (Jiva Pharma, Inc., priority 2013, dated 2016)
